Assay results published in patent US10221161B2, “Inhibitors of plasma kallikrein” (Kalvista Pharmaceuticals Limited, priority 2013, dated 2019).

Key:
Human plasma kallikrein = Human plasma kallikrein (Homo sapiens (Human), UniProt P03952); assay: Determination of the IC50 for plasma kallikrein (fluorogenic substrate H-DPro-Phe-Arg-AFC); type: biochemical; details: 37° C., read-out: IC50 (human PKal)
Description: Determination of the IC50 Plasma Kallikrein Plasma kallikrein inhibitory activity in vitro was determined using standard published methods (see e.g. Johansen et al., Int. J. Tiss. […] Shori et al., Biochem. Pharmacol., 1992, 43, 1209; Stürzebecher et al., Biol. Chem. Hoppe-Seyler, 1992, 373, 1025). Human plasma kallikrein (Protogen) was incubated at 37° C. with the fluorogenic substrate […] and various concentrations of the test compound.

Human KLK1 = Human KLK1 (Homo sapiens (Human), UniProt P06870); assay: Determination of the IC50 for KLK1 (fluorogenic substrate H-DVal-Leu-Arg-AFC); type: biochemical; details: human KLK1, 37° C.
Human KLK1, sequence (P06870 25-262): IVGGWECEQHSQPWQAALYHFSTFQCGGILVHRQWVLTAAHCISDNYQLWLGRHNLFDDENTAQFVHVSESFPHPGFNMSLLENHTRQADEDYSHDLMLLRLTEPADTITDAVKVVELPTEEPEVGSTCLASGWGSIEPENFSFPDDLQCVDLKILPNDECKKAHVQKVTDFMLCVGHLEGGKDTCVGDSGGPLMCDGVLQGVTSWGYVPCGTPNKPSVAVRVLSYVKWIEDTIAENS
Description: Selected compounds were further screened for inhibitory activity against the related enzyme KLK1. The ability of the compounds of formula (I) to inhibit KLK1 may be determined using the following biological assay:
Determination of the IC50 for KLK1
KLK1 inhibitory activity in vitro was determined using standard published methods (see e.g. Johansen et al., Int. J. Tiss. Reac. 1986, 8, 185; Shori et al., Biochem. Pharmacol., 1992, 43, 1209; Stürzebecher et al., Biol. Chem. Hoppe-Seyler, 1992, 373, 1025). Human KLK1 (Callbiochem) was incubated at 37° C. with the fluorogenic substrate H-DVal-Leu-Arg-AFC and various concentrations of the test compound. Residual enzyme activity (initial rate of reaction) was determined by measuring the change in optical absorbance at 410 nm and the IC50 value for the test compound was determined.

Human plasma kallikrein, sequence (P03952 391-638 limits assumed): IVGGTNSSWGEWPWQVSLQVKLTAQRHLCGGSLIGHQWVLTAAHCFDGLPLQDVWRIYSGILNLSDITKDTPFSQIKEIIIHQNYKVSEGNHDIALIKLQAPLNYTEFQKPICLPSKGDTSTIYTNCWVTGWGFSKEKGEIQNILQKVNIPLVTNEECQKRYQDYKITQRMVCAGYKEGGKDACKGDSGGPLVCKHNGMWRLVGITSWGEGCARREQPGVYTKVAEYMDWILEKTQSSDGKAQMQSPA
Human plasma kallikrein, sequence (P03952 20-390 partner limits assumed): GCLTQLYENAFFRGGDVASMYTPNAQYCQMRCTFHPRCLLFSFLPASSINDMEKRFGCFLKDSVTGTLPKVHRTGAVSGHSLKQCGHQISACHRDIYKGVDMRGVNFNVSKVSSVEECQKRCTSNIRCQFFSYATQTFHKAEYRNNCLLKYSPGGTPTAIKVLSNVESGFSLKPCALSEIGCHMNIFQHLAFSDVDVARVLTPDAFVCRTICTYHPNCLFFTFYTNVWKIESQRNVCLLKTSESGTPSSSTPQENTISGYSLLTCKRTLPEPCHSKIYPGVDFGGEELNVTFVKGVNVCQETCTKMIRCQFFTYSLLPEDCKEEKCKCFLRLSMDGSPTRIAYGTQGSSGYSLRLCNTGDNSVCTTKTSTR

IC50 (Human plasma kallikrein) [µM]	IC50 (Human KLK1) [µM]	Compound
0.137	6.55	CC1CCN(c2ccc(Cc3cncc(C(=O)NCc4ccc5c(N)nccc5c4)c3)cn2)C1 (centres unmarked) [Example 61, N-[(1-Aminoisoquinolin-6-yl)methyl]-5-{[6-(3-methylpyrrolidin-1-yl)pyridin-3-yl]methyl}pyridine-3-carboxamide]
0.375	3.51	CN(C)[C@H]1CCN(c2ccc(Cc3cncc(C(=O)NCc4ccc5c(N)nccc5c4)c3)cn2)C1 (stereo in doubt) [Example 68, N-[(1-Aminoisoquinolin-6-yl)methyl]-5-({6-[3-(dimethylamino)pyrrolidin-1-yl]pyridin-3-yl}methyl)pyridine-3-carboxamide]
10	> 10	Nc1nccc2cc(CNC(=O)c3cncc(CN4CCN(CCCc5ccccc5)CC4)c3)ccc12 [Example 50, N-[(1-Aminoisoquinolin-6-yl)methyl]-5-{[4-(3-phenylpropyl)piperazin-1-yl]methyl}pyridine-3-carboxamide]
3.51	29.8	Nc1nccc2cc(CNC(=O)c3cncc(CN4CCN(S(=O)(=O)c5ccccc5)CC4)c3)ccc12 [Example 35, N-[(1-Aminoisoquinolin-6-yl)methyl]-5-{[4-(benzenesulfonyl)piperazin-1-yl]methyl}pyridine-3-carboxamide]
0.683	10.7	CC1(C)CCCN1c1cc(Cc2cncc(C(=O)NCc3ccc4c(N)nccc4c3)c2)ccn1 [Example 84, N-[(1-Aminoisoquinolin-6-yl)methyl]-5-{[2-(2,2-dimethylpyrrolidin-1-yl)pyridin-4-yl]methyl}pyridine-3-carboxamide]
0.179	2.06	Cc1ccc2cc(Cn3cc(C(=O)NCc4ccc5c(N)nccc5c4)ccc3=O)ccc2n1 [Example 16, N-[(1-Aminoisoquinolin-6-yl)methyl]-1-[(2-methylquinolin-6-yl)methyl]-6-oxopyridine-3-carboxamide]
0.104	0.484	Cc1ccc2cc(Cc3cnc(C)c(C(=O)NCc4ccc5c(N)nccc5c4)c3)ccc2n1 [Example 22, N-[(1-Aminoisoquinolin-6-yl)methyl]-2-methyl-5-[(2-methylquinolin-6-yl)methyl]pyridine-3-carboxamide]
6.12	> 10	Nc1nccc2cc(CNC(=O)c3cncc(Cc4ccc(N5CCC(C(=O)O)C5)nc4)c3)ccc12 (centres unmarked) [Example 75, 1-{5-[(5-{[(1-Aminoisoquinolin-6-yl)methyl]carbamoyl}pyridin-3-yl)methyl]pyridin-2-yl}pyrrolidine-3-carboxylic acid]
0.0144	> 40	Cc1cnn(Cc2ccc(Cc3cncc(C(=O)NCc4ccc(CN)cc4C)c3)cc2)c1 [Example 93, N-{[4-(Aminomethyl)-2-methylphenyl]methyl}-5-({4-[(4-methylpyrazol-1-yl)methyl]phenyl}methyl)pyridine-3-carboxamide]
0.131	> 10	CC1(C)CCCN1c1ccc(Cc2cncc(C(=O)NCc3ccc4c(N)nccc4c3)c2)cn1 [Example 65, N-[(1-Aminoisoquinolin-6-yl)methyl]-5-{[6-(2,2-dimethylpyrrolidin-1-yl)pyridin-3-yl]methyl}pyridine-3-carboxamide]

Compound	IC50 (Human plasma kallikrein) [µM]	IC50 (Human KLK1) [µM]
Nc1nccc2cc(CNC(=O)c3cncc(CN4CCN(Cc5ccccc5)CC4)c3)ccc12 [Example 41, N-[(1-Aminoisoquinolin-6-yl)methyl]-5-[(4-benzylpiperazin-1-yl)methyl]pyridine-3-carboxamide]	2.75	37
Nc1nccc2cc(CNC(=O)c3cncc(Cc4ccc(-n5cccn5)cc4)c3)ccc12 [Example 27, N-[(1-Aminoisoquinolin-6-yl)methyl]-5-{[4-(pyrazol-1-yl)phenyl]methyl}pyridine-3-carboxamide]	1.01	12.1
Nc1nccc2cc(CNC(=O)c3cncc(Cc4ccc(N5CCCC5)nc4)c3)ccc12 [Example 55, N-[(1-Aminoisoquinolin-6-yl)methyl]-5-{[6-(pyrrolidin-1-yl)pyridin-3-yl]methyl}pyridine-3-carboxamide]	0.103	4.96
